# Measured values from PubChem BioAssay AID330 (DTP/NCI, 2004).
# Where “and” joins values, the source holds several entries; their conditions need not be identical. Equal entries are not always repeated. Toxic doses and inconclusive results are not listed.
# Test system: P388 leukemia ip, CD2F1 mice, survival T/C
# Assay: NCI In Vivo Anticancer Drug Screen. Data for tumor model P388 Leukemia (intraperitoneal) in CD2F1 (CDF1) mice
# Conditions: endpoint: median survival time, higher = longer survival
# In short: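 Mice carrying the transplanted tumor received test compound or vehicle. Survival was recorded in each group, and the value is the treated-group measurement divided by that of the vehicle-treated control group.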
# [1] = dose: 25.0 mg/kg/injection, schedule: Q04DX003 (ip), vehicle: Klucel (hydroxypropylcellulose) (HPC)
# [2] = dose: 100.0 mg/kg/injection, schedule: Q04DX003 (ip), vehicle: Klucel (hydroxypropylcellulose) (HPC)
# [3] = dose: 200.0 mg/kg/injection, schedule: Q04DX003 (ip), vehicle: Klucel (hydroxypropylcellulose) (HPC)
# [4] = dose: 50.0 mg/kg/injection, schedule: Q01DX009 (ip), vehicle: saline with Tween-80
# [5] = dose: 100.0 mg/kg/injection, schedule: Q01DX009 (ip), vehicle: saline with Tween-80
# [6] = dose: 200.0 mg/kg/injection, schedule: Q01DX009 (ip), vehicle: saline with Tween-80
# [7] = dose: 25.0 mg/kg/injection, schedule: Q01DX009 (ip), vehicle: saline with Tween-80
# [8] = dose: 50.0 mg/kg/injection, schedule: Q01DX005 (ip), vehicle: Klucel (hydroxypropylcellulose) (HPC)
# [9] = dose: 100.0 mg/kg/injection, schedule: Q01DX005 (ip), vehicle: Klucel (hydroxypropylcellulose) (HPC)
# [10] = dose: 12.5 mg/kg/injection, schedule: Q01DX005 (ip), vehicle: Klucel (hydroxypropylcellulose) (HPC)
# [11] = dose: 25.0 mg/kg/injection, schedule: Q01DX005 (ip), vehicle: Klucel (hydroxypropylcellulose) (HPC)
# [12] = dose: 100.0 mg/kg/injection, schedule: Q01DX009 (ip), vehicle: Klucel (hydroxypropylcellulose) (HPC)
# [13] = dose: 200.0 mg/kg/injection, schedule: Q01DX009 (ip), vehicle: Klucel (hydroxypropylcellulose) (HPC)
# [14] = dose: 400.0 mg/kg/injection, schedule: Q01DX009 (ip), vehicle: saline with Tween-80
# [15] = dose: 120.0 mg/kg/injection, schedule: Q01DX005 (ip), vehicle: saline with Tween-80
compound,measurement,setting,value
c1ccc(P(CCP(c2ccccc2)c2ccccc2)c2ccccc2)cc1,T/C,[1],117 % of control
same,T/C,[2],153 % of control
same,T/C,[3],161 % of control
CCSC(C/C=C/c1ccccc1)S(=O)CC (stereo not given),T/C,"dose: 100.0 mg/kg/injection, schedule: Q04DX003 (ip), vehicle: saline",99 % of control
same,T/C,"dose: 200.0 mg/kg/injection, schedule: Q04DX003 (ip), vehicle: saline",107 % of control
same,T/C,"dose: 400.0 mg/kg/injection, schedule: Q04DX003 (ip), vehicle: saline",105 % of control
CCCCn1c2nc(=O)n(C)c(=O)c-2cc2ccccc21,T/C,[4],110 % of control and 90 % of control
same,T/C,"dose: 66.0 mg/kg/injection, schedule: Q01DX009 (ip), vehicle: saline with Tween-80",103 % of control
same,T/C,[5],102 % of control
same,T/C,"dose: 150.0 mg/kg/injection, schedule: Q01DX009 (ip), vehicle: saline with Tween-80",103 % of control
same,T/C,[6],120 % of control and 98 % of control
O=C(CN1CC1)NCCCCCCCCNC(=O)CN1CC1,T/C,"dose: 25.0 mg/kg/injection, schedule: Q04DX003 (ip), vehicle: saline with Tween-80",159 % of control
same,T/C,"dose: 33.0 mg/kg/injection, schedule: Q04DX003 (ip), vehicle: saline with Tween-80",200 % of control
same,T/C,"dose: 50.0 mg/kg/injection, schedule: Q04DX003 (ip), vehicle: saline with Tween-80",181 % of control and 209 % of control
Nc1nnc2nc(CC(=O)c3cccc([N+](=O)[O-])c3)/c(=C/C(=O)c3cccc([N+](=O)[O-])c3)n12,T/C,"dose: 50.0 mg/kg/injection, schedule: Q01DX005 (ip), vehicle: saline with Tween-80",94 % of control
same,T/C,"dose: 100.0 mg/kg/injection, schedule: Q01DX005 (ip), vehicle: saline with Tween-80",91 % of control
same,T/C,"dose: 200.0 mg/kg/injection, schedule: Q01DX005 (ip), vehicle: saline with Tween-80",101 % of control
O=C(O)c1ccc(SSc2ccc(C(=O)O)cc2)cc1,T/C,"dose: 12.5 mg/kg/injection, schedule: Q01DX009 (ip), vehicle: saline with Tween-80",97 % of control
same,T/C,[7],106 % of control
same,T/C,[4],103 % of control
same,T/C,[5],111 % of control
COc1ccc2c(c1O)C13CCN(C)[C@@H](C2)C12CC2/C(=N/O)[C@H]3OC(C)=O (stereo not given in full),T/C,[8],92 % of control
same,T/C,[9],97 % of control
CC1=CC(=O)C2(OC3OC(C)C(O)C(O)C3O)C=COC(OC3OC(CO)C(O)C(O)C3O)C12 (stereo not given),T/C,[10],98 % of control
same,T/C,[11],95 % of control
same,T/C,[8],95 % of control
same,T/C,[9],95 % of control
same,T/C,"dose: 200.0 mg/kg/injection, schedule: Q01DX005 (ip), vehicle: Klucel (hydroxypropylcellulose) (HPC)",95 % of control
Fc1ccc2[nH]cc(C3CCCN4CCCCC34)c2c1 (stereo not given),T/C,"dose: 12.5 mg/kg/injection, schedule: Q01DX001 (ip), vehicle: saline with Tween-80",95 % of control
same,T/C,"dose: 25.0 mg/kg/injection, schedule: Q01DX001 (ip), vehicle: saline with Tween-80",101 % of control
same,T/C,"dose: 50.0 mg/kg/injection, schedule: Q01DX001 (ip), vehicle: saline with Tween-80",102 % of control
same,T/C,"dose: 100.0 mg/kg/injection, schedule: Q01DX001 (ip), vehicle: saline with Tween-80",101 % of control
COCCc1nn[nH]n1,T/C,"dose: 50.0 mg/kg/injection, schedule: Q01DX009 (ip), vehicle: saline",110 % of control
same,T/C,"dose: 100.0 mg/kg/injection, schedule: Q01DX009 (ip), vehicle: saline",115 % of control
same,T/C,"dose: 200.0 mg/kg/injection, schedule: Q01DX009 (ip), vehicle: saline",109 % of control
CC(C)=CCC(O)/C(C)=C/CC/C(=C/CC/C(C)=C/CO)CO (stereo not given),T/C,"dose: 3.88 mg/kg/injection, schedule: Q01DX005 (ip), vehicle: Klucel (hydroxypropylcellulose) (HPC)",93 % of control
same,T/C,"dose: 7.75 mg/kg/injection, schedule: Q01DX005 (ip), vehicle: Klucel (hydroxypropylcellulose) (HPC)",100 % of control
same,T/C,"dose: 15.5 mg/kg/injection, schedule: Q01DX005 (ip), vehicle: Klucel (hydroxypropylcellulose) (HPC)",102 % of control
same,T/C,"dose: 31.0 mg/kg/injection, schedule: Q01DX005 (ip), vehicle: Klucel (hydroxypropylcellulose) (HPC)",102 % of control
O=C=Nc1ccc(Cc2ccc(N=C=O)cc2)cc1,T/C,[12],103 % of control
same,T/C,[13],98 % of control
same,T/C,"dose: 400.0 mg/kg/injection, schedule: Q01DX009 (ip), vehicle: Klucel (hydroxypropylcellulose) (HPC)",93 % of control
CCCCCCCCC(=O)c1c(OC)oc(/C=N/O)cc1=O,T/C,"dose: 12.5 mg/kg/injection, schedule: Q01DX009 (ip), vehicle: Klucel (hydroxypropylcellulose) (HPC)",87 % of control
O=C(NC(CO)C(=O)OCc1ccccc1)OCc1ccccc1 (stereo not given),T/C,[5],90 % of control
same,T/C,[6],90 % of control
same,T/C,[14],95 % of control
Nc1ncnc2c1ncn2CC(O)CN(CCO)CCO (stereo not given),T/C,"dose: 60.0 mg/kg/injection, schedule: Q01DX005 (ip), vehicle: saline",97 % of control
same,T/C,"dose: 120.0 mg/kg/injection, schedule: Q01DX005 (ip), vehicle: saline",95 % of control
same,T/C,"dose: 240.0 mg/kg/injection, schedule: Q01DX005 (ip), vehicle: saline",96 % of control
CC1=NN(c2ccccc2)C(=O)/C1=C(\[O-])c1ccccc1.CC1=NN(c2ccccc2)C(=O)/C1=C(\[O-])c1ccccc1.CC1=NN(c2ccccc2)C(=O)/C1=C(\[O-])c1ccccc1.[Fe+3],T/C,"dose: 15.0 mg/kg/injection, schedule: Q01DX005 (ip), vehicle: saline with Tween-80",96 % of control and 97 % of control
same,T/C,"dose: 30.0 mg/kg/injection, schedule: Q01DX005 (ip), vehicle: saline with Tween-80",101 % of control and 90 % of control
same,T/C,[15],104 % of control and 87 % of control
COc1cc2cc3cc(-c4ccc(Cl)cc4)c(N4CCN(C)CC4)nc3nc2cc1OC,T/C,"dose: 60.0 mg/kg/injection, schedule: Q01DX005 (ip), vehicle: saline with Tween-80",94 % of control
same,T/C,[15],101 % of control
same,T/C,"dose: 240.0 mg/kg/injection, schedule: Q01DX005 (ip), vehicle: saline with Tween-80",111 % of control
c1ccc2sc(SSc3nc4ccccc4s3)nc2c1,T/C,[4],110 % of control
same,T/C,[5],108 % of control
same,T/C,[6],104 % of control
same,T/C,[14],109 % of control
CCCCNC(=S)NC(=O)c1ccccc1,T/C,[7],95 % of control
same,T/C,[4],94 % of control
COc1ccc(-n2c(=O)c(N=Nc3ccccc3C)c(O)n(-c3ccccc3Cl)c2=S)cc1,T/C,"dose: 100.0 mg/kg/injection, schedule: Q01DX001 (ip), vehicle: Klucel (hydroxypropylcellulose) (HPC)",100 % of control
same,T/C,"dose: 200.0 mg/kg/injection, schedule: Q01DX001 (ip), vehicle: Klucel (hydroxypropylcellulose) (HPC)",99 % of control
same,T/C,"dose: 400.0 mg/kg/injection, schedule: Q01DX001 (ip), vehicle: Klucel (hydroxypropylcellulose) (HPC)",95 % of control
CSc1nnc2n(N)cnn12,T/C,"dose: 100.0 mg/kg/injection, schedule: Q04DX002 (ip), vehicle: water",107 % of control
same,T/C,"dose: 200.0 mg/kg/injection, schedule: Q04DX002 (ip), vehicle: water",106 % of control
same,T/C,"dose: 400.0 mg/kg/injection, schedule: Q04DX002 (ip), vehicle: water",106 % of control
Cc1cc(CCN)c(C)c2c1oc1ccccc12,T/C,[1],103 % of control
same,T/C,"dose: 50.0 mg/kg/injection, schedule: Q04DX003 (ip), vehicle: Klucel (hydroxypropylcellulose) (HPC)",99 % of control
same,T/C,[2],100 % of control
same,T/C,[3],105 % of control
CCCCCCCCN1COC2CCc3ccccc3C21 (stereo not given),T/C,"dose: 50.0 mg/kg/injection, schedule: Q01DX005 (ip), vehicle: saline",100 % of control
same,T/C,"dose: 100.0 mg/kg/injection, schedule: Q01DX005 (ip), vehicle: saline",101 % of control
same,T/C,"dose: 200.0 mg/kg/injection, schedule: Q01DX005 (ip), vehicle: saline",100 % of control
CNC(=O)N(C)CN(C)C(=O)NC,T/C,"dose: 50.0 mg/kg/injection, schedule: Q01DX009 (ip), vehicle: Klucel (hydroxypropylcellulose) (HPC)",100 % of control
same,T/C,[12],106 % of control
same,T/C,[13],107 % of control
Nc1nc(N)c(CCc2ccccc2)c(N)n1,T/C,[10],97 % of control
same,T/C,[11],103 % of control
same,T/C,[8],92 % of control and 97 % of control
